Tests used:
[1] = Inhibition of beta-lactamase TEM-1
[2] = Inhibition of beta-lactamase PDC-3

Row | Structure (SMILES) | IC50 [1] | IC50 [2]
1 | CC1(C)[C@H](C(=O)O)N2C(=O)[C@@H](NS(=O)(=O)C(F)(F)F)[C@H]2S1(=O)=O | > 50 µM | –
2 | CC1(C)[C@H](C(=O)O)N2C(=O)[C@@H](N)[C@H]2S1(=O)=O | 8.4 µM | > 50 µM
3 | CC1(C)[C@H](C(=O)O)N2C(=O)[C@@H](NC(=O)Cc3ccccc3)[C@H]2S1(=O)=O | > 50 µM | > 50 µM
4 | COc1cccc(OC)c1C(=O)N[C@@H]1C(=O)N2[C@@H](C(=O)O)C(C)(C)S(=O)(=O)[C@H]12 | > 50 µM | –
5 | Cc1onc(-c2ccccc2)c1C(=O)N[C@@H]1C(=O)N2[C@@H](C(=O)O)C(C)(C)S(=O)(=O)[C@H]12 | > 50 µM | –
6 | CC1(C)[C@H](C(=O)O)N2C(=O)[C@@H](NCC(=O)O)[C@H]2S1(=O)=O | > 50 µM | –
7 | CC1(C)[C@H](C(=O)O)N2C(=O)[C@@H]([C@@H](O)C(=O)N3CCCC3)[C@H]2S1(=O)=O | 0.18 µM | –
8 | CC1(C)[C@H](C(=O)O)N2C(=O)[C@@H]([C@@H](O)CN)[C@H]2S1(=O)=O | 1.2 µM | 1.2 µM
9 | C=CC[C@@H]1C(=O)N2[C@@H](C(=O)OC(c3ccccc3)c3ccccc3)C(C)(C)S(=O)(=O)[C@H]12 | 35 µM | 1.2 µM
10 | CC1(C)[C@H](C(=O)O)N2C(=O)[C@@H](CCCO)[C@H]2S1(=O)=O | > 50 µM | –
11 | CC1(C)[C@H](C(=O)O)N2C(=O)[C@@H](CC(O)O)[C@H]2S1(=O)=O | > 50 µM | > 50 µM
12 | CC1(C)[C@H](C(=O)O)N2C(=O)[C@@H](CCO)[C@H]2S1(=O)=O | > 50 µM | –
13 | C=CCOC(=O)NC[C@@H]1C(=O)N2[C@@H](C(=O)O)C(C)(C)S(=O)(=O)[C@H]12 | > 50 µM | –
14 | CC1(C)[C@H](C(=O)O)N2C(=O)[C@@H](CN)[C@H]2S1(=O)=O | 0.45 µM | > 50 µM
15 | CC(C)(C)C(=O)NC[C@@H]1C(=O)N2[C@@H](C(=O)O)C(C)(C)S(=O)(=O)[C@H]12 | > 50 µM | –
16 | CC1(C)[C@H](C(=O)O)N2C(=O)[C@@H](CNC(=O)Cc3ccccc3)[C@H]2S1(=O)=O | > 50 µM | –
17 | CC1(C)[C@H](C(=O)O)N2C(=O)[C@@H](CNS(=O)(=O)C(F)(F)F)[C@H]2S1(=O)=O | 6.1 µM | –
18 | CC1(C)[C@H](C(=O)O)N2C(=O)[C@@H](CC(=O)NO)[C@H]2S1(=O)=O | > 50 µM | > 50 µM
19 | CC1(C)[C@H](C(=O)O)N2C(=O)[C@@H](CC(=O)O)[C@H]2S1(=O)=O | > 50 µM | –
20 | CC1(C)[C@H](C(=O)O)N2C(=O)C[C@H]2S1(=O)=O [SULBACTAM] | – | 4.3 µM
